Experimental data taken from ChEMBL document CHEMBL4138216, “Design, synthesis and structure-activity relationship of a focused library of β-phenylalanine derivatives as novel eEF2K inhibitors with apoptosis-inducing mechanisms in breast cancer” (Eur J Med Chem, 2018).
Calls of active or inactive are those of the source. The rule behind the calls is not given here.

Key:
[1] = system: MDA-MB-436; assay: Induction of apoptosis in human MDA-MB-436 cells assessed as DNA condensation after 12 to 36 hrs by Hoechst 33258 staining-based fluorescence assay; assay type: functional, cell-based
[2] = system: MDA-MB-231; assay: Induction of apoptosis in human MDA-MB-231 cells xenografted in BALB/c nude mouse assessed as decrease in pro-caspase-3 levels at 25 to 100 mg/kg, ig qd measured after 24 days by immunohistochemical analysis; assay type: functional, organism-based
[3] = molecular target: T1, Eukaryotic elongation factor 2 kinase (Homo sapiens, UniProt O00418); assay: Inhibition of eEF2K (unknown origin) using peptide MH-1 as substrate after 2 hrs by ADP-Glo luminescent assay
T1 sequence (O00418 whole entry): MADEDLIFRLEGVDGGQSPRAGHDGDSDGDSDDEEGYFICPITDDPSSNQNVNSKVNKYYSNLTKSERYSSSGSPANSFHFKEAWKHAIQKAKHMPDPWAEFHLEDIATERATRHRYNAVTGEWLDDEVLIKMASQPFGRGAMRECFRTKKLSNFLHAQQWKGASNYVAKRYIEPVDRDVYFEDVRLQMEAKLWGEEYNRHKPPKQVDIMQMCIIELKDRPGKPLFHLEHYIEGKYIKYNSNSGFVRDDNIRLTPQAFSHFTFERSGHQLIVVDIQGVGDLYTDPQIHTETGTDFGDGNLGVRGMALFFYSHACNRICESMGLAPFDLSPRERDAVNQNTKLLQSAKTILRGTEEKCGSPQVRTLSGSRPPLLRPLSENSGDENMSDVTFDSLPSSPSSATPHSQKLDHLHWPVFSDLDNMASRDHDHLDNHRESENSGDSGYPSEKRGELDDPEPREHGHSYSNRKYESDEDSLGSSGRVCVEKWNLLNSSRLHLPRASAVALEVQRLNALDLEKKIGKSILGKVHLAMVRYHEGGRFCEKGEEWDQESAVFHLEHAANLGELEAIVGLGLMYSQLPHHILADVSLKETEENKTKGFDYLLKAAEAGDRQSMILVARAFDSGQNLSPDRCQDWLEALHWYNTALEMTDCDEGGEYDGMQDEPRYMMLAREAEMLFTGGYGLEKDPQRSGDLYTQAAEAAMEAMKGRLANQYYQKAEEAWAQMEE

IC50 [3]: 5.5 µM
SMILES: N#Cc1ccc(S(=O)(=O)NC(CC(=O)O)c2ccc(Cl)cc2Cl)cc1 (stereo not drawn)
Activity [1]: Active | Activity [2]: Active
